Results from patent publication US20230348426A1, “OXOPYRROLIDINE FPR2 AGONISTS” (Bristol-Myers Squibb Company, priority 2020, published 2023).

Columns and labels:
human FPR1 = human FPR1 (Homo sapiens (Human), UniProt P21462); assay: FPR1 cyclic adenosine monophosphate (cAMP) assay; format: cell-based; details: CHO cells overexpressing human FPR1; forskolin 10 µM; inhibition of cAMP production; read-out: hFPR1 cAMP EC50
Description: (§1) N-formyl peptide receptors (FPRs) are a family of chemo attractant receptors that facilitate leukocyte response during inflammation. FPRs belong to the seven-transmembrane G protein-coupled receptor superfamily and are linked to inhibitory G-proteins (Gi). Three family members (FPR1, FPR2 and FPR3) have been identified in humans and are predominantly found in myeloid cells with varied distribution and have also been reported in multiple organs and tissues. After agonist binding, the FPRs activate a multitude of physiological pathways, such as intra cellular signaling transduction, Ca^2+ mobilization and transcription. The family interacts with a diverse set of ligands that includes proteins, polypeptides and fatty acid metabolites which activate both pro-inflammatory and pro-resolution downstream responses. FPR2 and FPR1 Cyclic Adenosine Monophosphate (cAMP) Assays were used to measure the activity of the compounds in this patent.
FPR2 and FPR1 Cyclic Adenosine Monophosphate (cAMP) Assays. A mixture of forskolin (5 µM final for FPR2 or 10 µM final for FPR1) and IBMX (200 µM final) were added to 384-well Proxiplates (Perkin-Elmer) pre-dotted with test compounds in DMSO (1% final) at final concentrations in the range of 0.020 nM to 100 µM. Chinese Hamster Ovary cells (CHO) overexpressing human FPR1 or human FPR2 receptors were cultured in F-12 (Ham’s) medium supplemented with 10% qualified FBS, 250 µg/ml zeocin and 300 µg/ml hygromycin (Life Technologies). Reactions were initiated by adding 2,000 human FPR2 cells per well or 4,000 human FPR1 cells per well in Dulbecco’s PBS (with calcium and magnesium) (Life Technologies) supplemented with 0.1% BSA (Perkin-Elmer). The reaction mixtures were incubated for 30 min at room temperature. The level of intracellular cAMP was determined using the HTRF HiRange cAMP assay reagent kit (Cisbio) according to manufacturer’s instruction. Solutions of cryptate conjugated anti-cAMP and d2 flurorophore-labelled cAMP were made in a supplied lysis buffer separately. Upon completion of the reaction, the cells were lysed with equal volume of the d2-cAMP solution and anti-cAMP solution. […] The potency and activity of a compound to inhibit cAMP production was then determined by fitting to a 4-parametric logistic equation from a plot of cAMP level versus compound concentrations.

human FPR2 = human FPR2 (Homo sapiens (Human), UniProt P25090); assay: FPR2 cyclic adenosine monophosphate (cAMP) assay; format: cell-based; details: CHO cells overexpressing human FPR2; forskolin 5 µM; inhibition of cAMP production; read-out: hFPR2 cAMP2 EC50
Sequence of human FPR2 (P25090 whole entry): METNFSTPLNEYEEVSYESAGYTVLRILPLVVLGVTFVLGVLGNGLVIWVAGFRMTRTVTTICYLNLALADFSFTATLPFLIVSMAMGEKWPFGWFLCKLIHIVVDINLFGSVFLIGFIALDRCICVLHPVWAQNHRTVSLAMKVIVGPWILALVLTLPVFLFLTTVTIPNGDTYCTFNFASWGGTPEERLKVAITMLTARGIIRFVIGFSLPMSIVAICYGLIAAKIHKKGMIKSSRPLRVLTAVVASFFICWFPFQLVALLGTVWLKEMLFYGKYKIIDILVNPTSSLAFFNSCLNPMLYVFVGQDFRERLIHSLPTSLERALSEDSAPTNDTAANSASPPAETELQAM
Description: as §1
FPR2 and FPR1 Cyclic Adenosine Monophosphate (cAMP) Assays. A mixture of forskolin (5 µM final for FPR2 or 10 µM final for FPR1) and IBMX (200 µM final) were added to 384-well Proxiplates (Perkin-Elmer) pre-dotted with test compounds in DMSO (1% final) at final concentrations in the range of 0.020 nM to 100 µM. Chinese Hamster Ovary cells (CHO) overexpressing human FPR1 or human FPR2 receptors were cultured in F-12 (Ham’s) medium supplemented with 10% qualified FBS, 250 µg/ml zeocin and 300 µg/ml hygromycin (Life Technologies). Reactions were initiated by adding 2,000 human FPR2 cells per well or 4,000 human FPR1 cells per well in Dulbecco’s PBS (with calcium and magnesium) (Life Technologies) supplemented with 0.1% BSA (Perkin-Elmer). The reaction mixtures were incubated for 30 min at room temperature. The level of intracellular cAMP was determined using the HTRF HiRange cAMP assay reagent kit (Cisbio) according to manufacturer’s instruction. Solutions of cryptate conjugated anti-cAMP and d2 flurorophore-labelled cAMP were made in a supplied lysis buffer separately. Upon completion of the reaction, the cells were lysed with equal volume of the d2-cAMP solution and anti-cAMP solution. After a 1-h room temperature incubation, time-resolved fluorescence intensity was measured using the Envision (Perkin-Elmer) at 400 nm excitation and dual emission at 590 nm and 665 nm. A calibration curve was constructed with an external cAMP standard at concentrations ranging from 1 µM to 0.1 pM by plotting the fluorescent intensity ratio from 665 nm emission to the intensity from the 590 nm emission against cAMP concentrations. The potency and activity of a compound to inhibit cAMP production was then determined by fitting to a 4-parametric logistic equation from a plot of cAMP level versus compound concentrations.

Sequence of human FPR1 (P21462 whole entry): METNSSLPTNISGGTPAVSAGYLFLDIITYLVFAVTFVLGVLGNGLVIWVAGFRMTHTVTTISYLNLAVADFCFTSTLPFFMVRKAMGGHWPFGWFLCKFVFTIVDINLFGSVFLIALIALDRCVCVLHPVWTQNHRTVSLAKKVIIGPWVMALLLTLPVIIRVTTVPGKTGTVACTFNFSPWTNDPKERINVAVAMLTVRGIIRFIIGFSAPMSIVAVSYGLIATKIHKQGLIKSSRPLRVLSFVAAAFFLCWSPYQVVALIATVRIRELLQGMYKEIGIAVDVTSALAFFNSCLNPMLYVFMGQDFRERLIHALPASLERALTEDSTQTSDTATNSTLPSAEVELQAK

| SMILES | EC50 (human FPR1) | EC50 (human FPR2) |
| --- | --- | --- |
| COc1cc(F)c([C@@H]2CN(c3nc(N4CCC(O)C4=O)ccc3F)C(=O)[C@H]2NC(=O)c2ccc(OC(F)F)cc2)c(F)c1 (stereo partly drawn) [Example 199] | 0.13 µM | 0.0052 µM |
| COCC(CO)n1cccc(N2C[C@@H](c3c(F)cc(OC)cc3F)[C@H](NC(=O)c3ccc(OC(F)(F)F)cc3)C2=O)c1=O (stereo partly drawn) [Example 144] | 0.0231 µM | 0.0036 µM |
| COc1cc(C2CCN(C)CC2)nc(N2C[C@@H](c3c(F)cc(OC)cc3F)[C@H](NC(=O)c3ccc(OC(F)F)cc3)C2=O)c1 [Example 498] | > 5 µM | 0.0018 µM |
| COc1cc(C2CC2)nc(N2C[C@@H](c3c(F)cc(OC)cc3F)[C@H](NC(=O)c3ccc(OC(F)F)cc3)C2=O)c1 [Example 589] | 2.6 µM | 0.13 µM |
| COc1cc(F)c([C@@H]2CN(c3c(C)ccn(CC(O)C4CC4)c3=O)C(=O)[C@H]2NC(=O)c2ccc(OC(F)F)cc2)c(F)c1 (stereo partly drawn) [Example 682] | 0.001 µM | 0.015 µM |
| COc1cc(F)c([C@@H]2CN(c3c(C)ccn(CC(=O)N4CCOCC4)c3=O)C(=O)[C@H]2NC(=O)c2ccc(Cl)cc2)c(F)c1 [Example 379] | 0.32 µM | 0.0026 µM |
| COc1cc(F)c([C@@H]2CN(c3ccc(CO)[nH]c3=O)C(=O)[C@H]2NC(=O)c2ccc(OC(F)F)cc2)c(F)c1 [Example 139] | 0.57 µM | 0.0035 µM |
| COc1cc(F)c([C@@H]2CN(c3c(C)ccn(CC(C)O)c3=O)C(=O)[C@H]2NC(=O)c2ccc(Cl)cc2)c(F)c1 (stereo partly drawn) [Example 362] | 0.012 µM | 0.0001 µM |
| COc1cc(F)c([C@@H]2CN(c3cc(F)cc(OC(C)C)c3)C(=O)[C@H]2NC(=O)c2ccc(OC(F)(F)F)cc2)c(F)c1 [Example 14] | 0.043 µM | 0.037 µM |
| COc1cc(F)c([C@@H]2CN(c3c(C)ccn(CC(O)C4CC4)c3=O)C(=O)[C@H]2NC(=O)c2ccc(OC(F)F)cc2)c(F)c1 (stereo partly drawn) [Example 685] | 0.0014 µM | 0.014 µM |
| COc1cc(F)c([C@@H]2CN(c3cccc(N4C[C@H]5C[C@@H]4CO5)n3)C(=O)[C@H]2NC(=O)c2ccc(OC(F)F)cc2)c(F)c1 [Example 211] | 0.025 µM | 0.0055 µM |
| COCC(CN)n1cccc(N2C[C@@H](c3c(F)cc(OC)cc3F)[C@H](NC(=O)c3ccc(OC(F)F)cc3)C2=O)c1=O (stereo partly drawn) [Example 44] | 0.01 µM | 0.001 µM |
| COCC(C(=O)N1CCCC1)n1cccc(N2C[C@@H](c3c(F)cc(OC)cc3F)[C@H](NC(=O)c3ccc(OC(F)F)cc3)C2=O)c1=O (stereo partly drawn) [Example 485] | 0.002 µM | 0.0017 µM |
| COc1cc(N2C[C@@H](c3c(F)cc(OC)cc3F)[C@H](NC(=O)c3ccc(OC(F)F)cc3)C2=O)nc(C(C)(C)O)c1 [Example 585] | 1.2 µM | 0.0218 µM |
| CCn1cnc(C)c(N2C[C@@H](c3c(F)cc(OC)cc3F)[C@H](NC(=O)c3ccc(Cl)cc3)C2=O)c1=O [Example 520] | 1.3 µM | 0.0049 µM |
| COc1cc(F)c([C@@H]2CN(c3ccc4n(c3=O)CCOC4=O)C(=O)[C@H]2NC(=O)c2ccc(OC(F)(F)F)cc2)c(F)c1 [Example 667] | 0.0077 µM | 0.063 µM |
| COc1ccnc(N2C[C@@H](c3c(F)cc(OC)cc3F)[C@H](NC(=O)c3ccc(OC(F)(F)F)cc3)C2=O)c1 [Example 23] | 1.5 µM | 0.028 µM |
| COc1cc(F)c([C@@H]2CN(c3cccn(CC(F)(F)F)c3=O)C(=O)[C@H]2NC(=O)c2ccc(OC(F)F)cc2)c(F)c1 [Example 190] | 0.13 µM | 0.005 µM |
| COc1ccc([C@@H]2CN(c3cccn(CC(F)F)c3=O)C(=O)[C@H]2NC(=O)c2ccc(OC(F)(F)F)cc2)cc1 [Example 120] | 0.013 µM | 0.0031 µM |

| SMILES | EC50 (human FPR1) | EC50 (human FPR2) |
| --- | --- | --- |
| COc1cc(F)c([C@@H]2CN(c3nc(N4CCN(C)CC4)ccc3C(F)F)C(=O)[C@H]2NC(=O)c2ccc(Cl)cc2)c(F)c1 [Example 333] | 5.7 µM | 0.014 µM |
| COc1ccc([C@@H]2CN(c3ccnn(CCC(F)(F)F)c3=O)C(=O)[C@H]2NC(=O)c2ccc(Cl)cc2)cc1 [Example 671] | – | 0.0058 µM |
| COc1cc(F)c([C@@H]2CN(c3cn(C)nc3OC)C(=O)[C@H]2NC(=O)c2ccc(OC(F)(F)F)cc2)c(F)c1 [Example 631] | 0.16 µM | 0.01 µM |
| COc1cc(F)c([C@@H]2CN(c3cccn(CC(C)OC)c3=O)C(=O)[C@H]2NC(=O)c2ccc(OC(F)(F)F)cc2)c(F)c1 (stereo partly drawn) [Example 103] | 0.0019 µM | 0.0028 µM |
| COc1cc(F)c([C@@H]2CN(c3nc(N4C[C@@H]5C[C@H]4CN5C)ccc3OC)C(=O)[C@H]2NC(=O)c2ccc(Cl)cc2)c(F)c1 [Example 259] | 0.58 µM | 0.0074 µM |
| COc1ccc([C@@H]2CN(c3cccn(CC(F)F)c3=O)C(=O)[C@H]2NC(=O)c2ccc(OC(F)(F)F)cc2)c(F)c1 [Example 45] | 0.0043 µM | 0.001 µM |
| COc1cc(F)c([C@@H]2CN(c3nc(NC(C)=O)ccc3F)C(=O)[C@H]2NC(=O)c2ccc(OC(F)(F)F)cc2)c(F)c1 [Example 206] | 0.024 µM | 0.0054 µM |
| CNc1ccnc(N2C[C@@H](c3c(F)cc(OC)cc3F)[C@H](NC(=O)c3ccc(OC(F)F)cc3)C2=O)c1C(F)(F)F [Example 261] | 0.94 µM | 0.0075 µM |
| CCn1cc(C)c(C)c(N2C[C@@H](c3c(F)cc(OC)cc3F)[C@H](NC(=O)c3ccc(OC(F)F)cc3)C2=O)c1=O [Example 642] | 0.57 µM | 0.015 µM |
| COc1cc(F)c([C@@H]2CN(c3cccn4cc(C)nc34)C(=O)[C@H]2NC(=O)c2ccc(Cl)cc2)c(F)c1 [Example 493] | 0.27 µM | 0.0022 µM |
| COc1cc(F)c([C@@H]2CN(c3c(C)ccn([C@H]4COC[C@@H]4O)c3=O)C(=O)[C@H]2NC(=O)c2ccc(OC(F)F)cc2)c(F)c1 [Example 624] | 0.0093 µM | 0.0015 µM |
| COc1cc(F)c([C@@H]2CN(c3cccn4cc(C(C)C)nc34)C(=O)[C@H]2NC(=O)c2ccc(Cl)cc2)c(F)c1 [Example 496] | 1.1 µM | 0.003 µM |
| CCn1cccc(N2C(=O)[C@@H](NC(=O)c3ccc(OC(F)F)cc3)[C@H](c3c(F)cc(OC)cc3F)[C@@H]2C)c1=O [Example 80] | 0.13 µM | 0.0021 µM |
| COCC(C(=O)N(C)C)n1ccc(C)c(N2C[C@@H](c3ccc(OC)cc3)[C@H](NC(=O)c3ccc(OC(F)F)cc3)C2=O)c1=O (stereo partly drawn) [Example 295] | 0.0006 µM | 0.0089 µM |
| COc1cc(F)c([C@@H]2CN(c3c(C)ccn(CC(O)C4CC4)c3=O)C(=O)[C@H]2NC(=O)c2ccc(OC(F)(F)F)cc2)c(F)c1 (stereo partly drawn) [Example 686] | 0.0007 µM | – |
| COc1cc(F)c([C@@H]2CN(c3c(C)ccn(CC(C)O)c3=O)C(=O)[C@H]2NC(=O)c2ccc(OC(F)(F)F)cc2)c(F)c1 (stereo partly drawn) [Example 400] | – | 0.0029 µM |
| COCC(CO)n1ccc(C)c(N2C[C@@H](c3c(F)cc(OC)cc3F)[C@H](NC(=O)c3ccc(OC(F)(F)F)cc3)C2=O)c1=O (stereo partly drawn) [Example 429] | – | 0.0015 µM |
| COc1cc(F)c([C@@H]2CN(c3c(C)ccn(CC(O)C4CC4)c3=O)C(=O)[C@H]2NC(=O)c2ccc(OC(F)(F)F)cc2)c(F)c1 (stereo partly drawn) [Example 683] | – | 0.013 µM |
